Experiment: Storage stability test (eye drop in contact with resin containers, 40° C. for 7 days, HPLC)
Type: physicochemical
Details: eye drop (present compound 0.0005%, polysorbate 80 0.05%, pH about 6), containers of propylene/ethylene random copolymer (98.7/1.3, 97.4/2.6, 96.4/3.6) compared with propylene homopolymer container
Experimental: Hereinafter, the present invention will be described in detail through carrying out a storage stability test (40° C. for 7 days). However, such descriptions are disclosed for the purpose of understanding the present invention better and are not meant to limit the scope of the present invention.
As a typical example of a prostaglandin F2α derivative having at least a fluorine atom in its molecule, 16-phenoxy-15-deoxy-15,15-difluoro-17,18,19,20-tetranor-prostaglandin F2α isopropyl ester (hereinafter, referred to as the “present compound” ) was used. The present compound (0.0005%) and polysorbate 80 (0.05%) were dissolved in purified water, and then, commonly used additives such as disodium edetate (q.s.), concentrated glycerin (q.s.), benzalkonium chloride (q.s.) and the like were added thereto to obtain an eye drop with an osmotic pressure of about 1 and a pH of about 6. […]
The eye drop (110 ml) obtained in the section of “(1) Preparation of Eye Drop” was placed in a glass container and the glass container was heated to 40° C. […] The amount of the present compound contained in the glass container was measured by high performance liquid chromatography before and after the storage, and the content of the present compound (average) was calculated taking the content of the present compound at the time of initiation of storage as 100%.

Compound: CC(C)OC(=O)CCC/C=C\C[C@@H]1[C@@H](/C=C/C(F)(F)COc2ccccc2)[C@H](O)C[C@@H]1O [present compound, 16-phenoxy-15-deoxy-15,15-difluoro-17,18,19,20-tetranor-prostaglandin F2α isopropyl ester]
- content of the present compound (average), content at the time of initiation of storage taken as 100%: higher
